Here are results for three compounds from patent publication US9464135B2, “Epithelial membrane protein-2 (EMP2) and proliferative vitroretinopathy (PVR)” (THE REGENTS OF THE UNIVERSITY OF CALIFORNIA, priority 2009, dated 2016).

Holding throughout (format): cell-based, human
For test [1], the system named is ARPE-19 cells. Put plainly: Collagen gel contraction assay, ARPE-19 cells. As to conditions: 1 hour pretreatment, normalized to vehicle control, read-out: concentration required to achieve 50% inhibition of the gel contraction. The method, then: EMP2 diabody was recombinantly constructed using a phage library to select for reactivity against a human EMP2 peptide. […] Toxicity, adhesion, and migration were assessed respectively through flow cytometry using Annexin V, binding to collagen type 1, and a wound healing assay. Collagen gel contraction was assessed using an in vitro assay.
(§1) Collagen gel contraction assays were performed as previously reported (Morales S A et al., Exp Eye Res, 85(6):790-798 (2007)). Briefly, collagen gels were prepared by combining collagen type I (BD Biosciences) 10×DMEM, and DMEM/F12. The final concentration of the collagen type I mixture was 2.5 mg/mL. The collagen solution (500 μL) was added to each well of a 24-well plate and incubated at 37° C. in 5% CO2 for 1 hour. Cultured ARPE-19 cell with modified EMP2 levels were harvested and resuspended in serum-free DMEM/F12 at a final concentration of 5×10^5/mL. ARPE-19 cells with modified EMP2 levels were seeded onto the collagen gel at a concentration of 2.5×10^5 cells per well and the percentage of contraction was measured at 24 hours. The area of the each gel was obtained by taking a picture of the gel using image capture (Gel Doc 2000; Bio-Rad, Hercules, Calif.) and quantified with NIH Image J (developed by Wayne Rasband, National Institutes of Health, Bethesda, Md.; available at http://rsb.info.nih.gov/ij/index.html). […]

For test [2], the system named is ARPE-19/EMP2 siRNA cells. Nature of the test: Collagen gel contraction assay, ARPE-19/EMP2 siRNA cells. To be noted: 1 hour pretreatment, normalized to vehicle control, read-out: concentration required to achieve 50% inhibition of the gel contraction. The method, then: as §1
(§2) Collagen gels were prepared with collagen type I (BD Biosciences) in DMEM/F12 at a final concentration of 2.5 mg/mL. […] ARPE-19, ARPE-19/EMP2, and ARPE-19/EMP2 siRNA cells were seeded onto the collagen gels at a concentration of 2.5×10^5 cells per well and the percentage of contraction was measured at specific time intervals. […]

For test [3], the system named is ARPE-19/EMP2 cells. Nature of the test: Collagen gel contraction assay, ARPE-19/EMP2 cells. As to conditions: overexpressing ARPE-19/EMP2 cells; 1 hour pretreatment; normalized to vehicle control; read-out: concentration required to achieve 50% inhibition of the gel contraction. The method, then: as §1, §2
Test [4] concerns ARPE-19 cells. Nature of the test: Migration assay (scratch wound closure). As to conditions: 50 ng/mL PDGF, 24 hours. The method, then:
ARPE-19 and ARPE-19/EMP2 cells were seeded onto a 24-well plate and incubated for 3 days until cells reached confluence. The cells were washed with PBS, serum-free medium was added, and the cells were incubated overnight. A 10 μL pipette tip was used to make a scratch in the monolayer and the medium was removed and replaced with serum-free medium or serum-free medium that contained 50 ng/mL PDGF. Pictures of the wound were taken at various time points, and the percentage closure of the scratch was quantified with NIH Image J software. The area of the scratch was measured immediately after the wound was created. Over time, cells migrated into the cleared area; however, a gap was still visible after 24 hours. The gap size was measured and divided by the original scratch size, and this value was expressed as percentage closure.

Test [5] deals with ARPE-19 and ARPE-19/EMP2 cells. Nature of the test: Collagen production (Sircol Collagen Assay). As to conditions: 10 ng/mL TGF-β, 72 hours, serum-free medium; compared with untreated condition. The method, then: ARPE-19 and ARPE-19/EMP2 cells were seeded onto a six-well plate at a concentration of 7×10^5 cells/mL in serum-free medium in the presence or absence of 10 ng/mL […]. The medium was collected after 72 hours. Secreted collagen was measured (Sircol Collagen Assay; Accurate Chemical & Scientific, Westbury, N.Y.). The collagen assay is a colorimetric procedure. The reaction product was quantified with the microplate reader at a wavelength of 540 nm. Each experiment included at least six replicates, and at least three independent experiments were performed. A Student's t-test (unpaired, one-tail) was used. P<0.05 was judged to be statistically significant.

On to `CC(C)(C)n1nc(-c2ccc(Cl)cc2)c2c(N)ncnc21` [PP2], for which the IC50 in test [1] is 2500 nM; in test [2], under 1000 nM; in test [3], 5000 nM.
Turning to PDGF, the wound closure result in test [4] was “stimulated wound closure”.
On to TGF-β, for which the collagen production result in test [5] was “increased collagen production”.
